The values that follow are results of earlier work, collected in patent US8999393B1, “Sustained release formulations of lorazepam” (Edgemont Pharmaceuticals LLC, priority 2013, dated 2015).

The conditions of data set [1]: according to the package insert.

Take `O=C1Nc2ccc(Cl)cc2C(c2ccccc2Cl)=NC1O` (racemic) [lorazepam, ±7-chloro-5-(2-chlorophenyl)-1,3-dihydro-3-hydroxy-2H-1,4-benzodiazepin-2-one]: the solubility in water result is listed as “almost insoluble”. In addition, the “half-life in human plasma” value in data set [1] was “about 12 hours”.
